# In patent US20220281876A1, “DEGRADATION OF BRUTON'S TYROSINE KINASE (BTK) BY CONJUGATION OF BTK INHIBITORS WITH E3 LIGASE LIGAND AND METHODS OF USE” (BEIGENE, LTD., priority 2019, published 2022):
# Target: T1, BTK (Homo sapiens, UniProt Q06187)
# T1 construct: endogenous in cells; host or cells: Ramos cells
# Assay: BTK cell degradation in Ramos cells (total BTK ELISA)
# Format: cell-based
# Details: 16 h incubation, FastScan total BTK ELISA
# Procedure: Ramos cells are treated with compounds diluted in 0.1% DMSO, dilution is done according to the following protocol: (1) make 1000x stock solution in DMSO from 10 mM by 5-fold dilution, total 7 doses were included; (2) make 10x solution in cell culture medium by transferring 1 ul 1000x stock solution into 99 ul medium; (3) 11 ul of 10× solution is added to cells and incubate for 16 h.
# Cells in 96 well plate are harvested by centrifugation (1200 rpm), and wash once with ice-cold PBS. Then, 100 ul 1×cell extraction buffer is added in each well. The cells are placed on a shaker for 20 min at 4° C.; 5 ul lysate is transferred to 45 ul of 1×cell extraction buffer in ELISA plate, and 50 ul of the antibody cocktail is added in each well; seal the plate and incubate 1 hour at room temperature on a plate shaker; medium is discarded from the plate, tap the plated on a paper towel, wash 3×200 ul ELISA wash buffer; add 100 ul of TMB to each well and incubate the plate in the dark for 15 min at room temperature on a shaker; add 100 ul of STOP solution to each well; read absorbance at 450 nm. The BTK ELISA assay was performed using FastScan total BTK ELISA kit (Cell Signaling Cat #36609).
# T1 sequence (Q06187 whole entry): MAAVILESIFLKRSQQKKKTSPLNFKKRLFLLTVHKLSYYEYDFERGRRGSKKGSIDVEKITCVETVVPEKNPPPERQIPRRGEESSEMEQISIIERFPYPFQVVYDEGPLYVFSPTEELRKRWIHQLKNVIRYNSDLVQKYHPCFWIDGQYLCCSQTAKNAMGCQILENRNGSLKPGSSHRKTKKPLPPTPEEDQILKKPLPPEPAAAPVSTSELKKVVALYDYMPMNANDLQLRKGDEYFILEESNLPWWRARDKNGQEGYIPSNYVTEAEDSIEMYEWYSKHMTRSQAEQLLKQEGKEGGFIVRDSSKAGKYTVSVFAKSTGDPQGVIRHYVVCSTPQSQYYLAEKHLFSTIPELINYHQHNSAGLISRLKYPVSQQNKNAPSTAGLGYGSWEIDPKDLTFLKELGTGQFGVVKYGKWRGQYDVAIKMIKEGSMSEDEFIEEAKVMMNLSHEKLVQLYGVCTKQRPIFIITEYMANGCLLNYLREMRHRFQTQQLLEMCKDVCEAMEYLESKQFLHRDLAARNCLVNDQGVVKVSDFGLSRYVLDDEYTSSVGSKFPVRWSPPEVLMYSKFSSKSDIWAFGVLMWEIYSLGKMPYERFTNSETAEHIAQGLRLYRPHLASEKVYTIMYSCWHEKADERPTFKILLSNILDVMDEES
row,SMILES,DC50
1,"NC(=O)c1c(-c2ccc(Oc3ccccc3)cc2)nn2c1NCC[C@H]2C1CCN(C(=O)c2cn(CCOCCOCCOCCOCCOCCOCCOCCNc3cccc4c3C(=O)N(C3CCC(=O)NC3=O)C4=O)nn2)CC1 (stereo partly drawn) [Example 17, (7S)-7-(1-(1-(23-((2-(2,6-dioxopiperidin-3-yl)-1,3-dioxoisoindolin-4-yl)amino)-3,6,9, 12, 15, 18, 21-heptaoxatricosyl)-1H-1,2,3-triazole-4-carbonyl)piperidin-4-yl)-2-(4-phenoxyphenyl)-4,5,6,7-tetrahydropyrazolo[1,5-a]pyrimidine-3-carboxamide]",> 10000 nM
2,"NC(=O)c1c(-c2ccc(Oc3ccccc3)cc2)nn2c1NCC[C@H]2C1CCN(C(=O)CCCc2cn(CCOCCNc3cccc4c3C(=O)N(C3CCC(=O)NC3=O)C4=O)nn2)CC1 (stereo partly drawn) [Example 18, (7S)-7-(1-(4-(1-(2-(2-((2-(2,6-dioxopiperidin-3-yl)-1,3-dioxoisoindolin-4-yl)amino)ethoxy)ethyl)-1H-1,2,3-triazol-4-yl)butanoyl)piperidin-4-yl)-2-(4-phenoxyphenyl)-4,5,6,7-tetrahydropyrazolo[1,5-a]pyrimidine-3-carboxamide]",236 nM
3,"NC(=O)c1c(-c2ccc(Oc3ccccc3)cc2)nn2c1NCC[C@H]2C1CCN(C(=O)CCCc2cn(CCCCNC(=O)COc3cccc4c3C(=O)N(C3CCC(=O)NC3=O)C4=O)nn2)CC1 (stereo partly drawn) [Example 19, (7S)-7-(1-(4-(1-(4-(2-((2-(2,6-dioxopiperidin-3-yl)-1,3-dioxoisoindolin-4-yl)oxy)acetamido)butyl)-1H-1,2,3-triazol-4-yl)butanoyl)piperidin-4-yl)-2-(4-phenoxyphenyl)-4,5,6,7-tetrahydropyrazolo[1,5-a]pyrimidine-3-carboxamide]",6410 nM
4,"NC(=O)c1c(-c2ccc(Oc3ccccc3)cc2)nn2c1NCC[C@H]2C1CCN(C(=O)CCCc2cn(CCOCCOCCNc3cccc4c3C(=O)N(C3CCC(=O)NC3=O)C4=O)nn2)CC1 (stereo partly drawn) [Example 20, (7S)-7-(1-(4-(1-(2-(2-(2-((2-(2,6-dioxopiperidin-3-yl)-1,3-dioxoisoindolin-4-yl)amino)ethoxy)ethoxy)ethyl)-1H-1,2,3-triazol-4-yl)butanoyl)piperidin-4-yl)-2-(4-phenoxyphenyl)-4,5,6,7-tetrahydropyrazolo[1,5-a]pyrimidine-3-carboxamide]",> 10000 nM
5,"NC(=O)c1c(-c2ccc(Oc3ccccc3)cc2)nn2c1NCC[C@H]2C1CCN(CCOCCOCC(=O)Nc2ccc3c(c2)C(=O)N(C2CCC(=O)NC2=O)C3=O)CC1 (stereo partly drawn) [Example 24, (7S)-7-(1-(2-(2-(2-((2-(2,6-dioxopiperidin-3-yl)-1,3-dioxoisoindolin-5-yl)amino)-2-oxoethoxy)ethoxy)ethyl)piperidin-4-yl)-2-(4-phenoxyphenyl)-4,5,6,7-tetrahydropyrazolo[1,5-a]pyrimidine-3-carboxamide]",34 nM
6,"NC(=O)c1c(-c2ccc(Oc3ccccc3)cc2)nn2c1NCC[C@H]2C1CCN(C(=O)COCCCCCCCCNc2cccc3c2C(=O)N(C2CCC(=O)NC2=O)C3=O)CC1 (stereo partly drawn) [Example 26, (7S)-7-(1-(2-((8-((2-(2,6-dioxopiperidin-3-yl)-1,3-dioxoisoindolin-4-yl)amino)octyl)oxy)acetyl)piperidin-4-yl)-2-(4-phenoxyphenyl)-4,5,6,7-tetrahydropyrazolo[1,5-a]pyrimidine-3-carboxamide]",> 10000 nM
7,"NC(=O)c1c(-c2ccc(Oc3ccccc3)cc2)nn2c1NCC[C@H]2C1CCN(C(=O)CCCCNc2cccc3c2C(=O)N(C2CCC(=O)NC2=O)C3=O)CC1 (stereo partly drawn) [Example 31, (7S)-7-(1-(5-((2-(2,6-dioxopiperidin-3-yl)-1,3-dioxoisoindolin-4-yl)amino)pentanoyl)piperidin-4-yl)-2-(4-phenoxyphenyl)-4,5,6,7-tetrahydropyrazolo[1,5-a]pyrimidine-3-carboxamide]",> 10000 nM
8,"NC(=O)c1c(-c2ccc(Oc3ccccc3)cc2)nn2c1NCC[C@H]2C1CCN(C(=O)CCCNc2cccc3c2C(=O)N(C2CCC(=O)NC2=O)C3=O)CC1 (stereo partly drawn) [Example 32, (7S)-7-(1-(4-((2-(2,6-dioxopiperidin-3-yl)-1,3-dioxoisoindolin-4-yl)amino)butanoyl)piperidin-4-yl)-2-(4-phenoxyphenyl)-4,5,6,7-tetrahydropyrazolo[1,5-a]pyrimidine-3-carboxamide]",> 10000 nM

# Other lines, results leading:
row,DC50,SMILES
1,388 nM,"NC(=O)c1c(-c2ccc(Oc3ccccc3)cc2)nn2c1NCC[C@H]2C1CCN(C(=O)CCCc2cn(CCOCCOCCOCCNc3cccc4c3C(=O)N(C3CCC(=O)NC3=O)C4=O)nn2)CC1 (stereo partly drawn) [Example 21, (7S)-7-(1-(4-(1-(2-(2-(2-(2-((2-(2,6-dioxopiperidin-3-yl)-1,3-dioxoisoindolin-4-yl)amino)ethoxy)ethoxy)ethoxy)ethyl)-1H-1,2,3-triazol-4-yl)butanoyl)piperidin-4-yl)-2-(4-phenoxyphenyl)-4,5,6,7-tetrahydropyrazolo[1,5-a]pyrimidine-3-carboxamide]"
2,> 10000 nM,"NC(=O)c1c(-c2ccc(Oc3ccccc3)cc2)nn2c1NCC[C@H]2C1CCN(C(=O)COCCCCCCCCNC(=O)COc2cccc3c2CN(C2CCC(=O)NC2=O)C3=O)CC1 (stereo partly drawn) [Example 25, (7S)-7-(1-(2-((8-(2-((2-(2,6-dioxopiperidin-3-yl)-1-oxoisoindolin-4-yl)oxy)acetamido)octyl)oxy)acetyl)piperidin-4-yl)-2-(4-phenoxyphenyl)-4,5,6,7-tetrahydropyrazolo[1,5-a] pyrimidine-3-carboxamide]"
3,> 10000 nM,"NC(=O)c1c(-c2ccc(Oc3ccccc3)cc2)nn2c1NCC[C@H]2C1CCN(C(=O)COCCOCCOCCOCCNc2cccc3c2C(=O)N(C2CCC(=O)NC2=O)C3=O)CC1 (stereo partly drawn) [Example 27, (7S)-7-(1-(14-((2-(2,6-dioxopiperidin-3-yl)-1,3-dioxoisoindolin-4-yl)amino)-3,6,9, 12-tetraoxatetradecanoyl)piperidin-4-yl)-2-(4-phenoxyphenyl)-4,5,6,7-tetrahydropyrazolo[1,5-a]pyrimidine-3-carboxamide]"
4,1480 nM,"NC(=O)c1c(-c2ccc(Oc3ccccc3)cc2)nn2c1NCC[C@H]2C1CCN(C(=O)COCCOCCNC(=O)CCN2CCN(c3ccc4c(c3)C(=O)N(C3CCC(=O)NC3=O)C4=O)CC2)CC1 (stereo partly drawn) [Example 28, (7S)-7-(1-(2-(2-(2-(3-(4-(2-(2,6-dioxopiperidin-3-yl)-1,3-dioxoisoindolin-5-yl)piperazin-1-yl)propanamido)ethoxy)ethoxy)acetyl)piperidin-4-yl)-2-(4-phenoxyphenyl)-4,5,6,7-tetrahydropyrazolo[1,5-a]pyrimidine-3-carboxamide]"
5,458 nM,"NC(=O)c1c(-c2ccc(Oc3ccccc3)cc2)nn2c1NCC[C@H]2C1CCN(C(=O)COCCOCCOCCOCCNC(=O)COc2cccc3c2CN(C2CCC(=O)NC2=O)C3=O)CC1 (stereo partly drawn) [Example 29, (7S)-7-(1-(1-((2-(2,6-dioxopiperidin-3-yl)-1-oxoisoindolin-4-yl)oxy)-2-oxo-6,9, 12, 15-tetraoxa-3-azaheptadecan-17-oyl)piperidin-4-yl)-2-(4-phenoxyphenyl)-4,5,6,7-tetrahydropyrazolo[1,5-a]pyrimidine-3-carboxamide]"
